# From patent US7767659B2, “Synthesis of naturally occurring ecteinascidins and related compounds” (Pharma Mar, S.A., priority 2002, dated 2010)
# Where two headings read alike, the source gives them in different places.
# Key:
# [1] = tested on: HeLa-APL; experiment: Inhibition of cells growth by colorimetric assay (SRB); details: Homo sapiens, 48 h; for GI50: read-out: HELA-APL GI50; for CC50: read-out: HELA-APL LC50; for IC (TGI): read-out: HELA-APL TGI
# Summary of the method: (§1)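 Colorimetric SRB read (490 nm) on triplicate wells after 48 h at 37 °C, 5% CO2. Dose range 10 to 10^−8 μg/ml; 5×10^3 cells/well pre-attached 18 h.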
# [2] = tested on: LNCaP; experiment: as above; details: Homo sapiens, LNCaP, 48 h
# Summary of the method: as §1
# [3] = tested on: PANC-1; experiment: as above; details: Homo sapiens, PANC-1, 48 h; for GI50: read-out: PANC-1 GI50; for CC50: read-out: PANC-1 LC50; for IC (TGI): read-out: PANC-1 TGI
# Summary of the method: as §1
# [4] = tested on: K-562; experiment: as above; details: Homo sapiens, K562, 48 h; for GI50: read-out: K562 GI50; for CC50: read-out: K562 LC50; for IC (TGI): read-out: K562 TGI
# Summary of the method: as §1
# [5] = tested on: IGROV-1; experiment: as above; details: Homo sapiens, IGROV-1, 48 h; for GI50: read-out: IGROV GI50; for CC50: read-out: IGROV LC50; for IC (TGI): read-out: IGROV TGI
# Summary of the method: as §1
# [6] = tested on: LoVo-Dox; experiment: as above; details: Homo sapiens, 48 h; for GI50: read-out: LOVO-DOX GI50; for CC50: read-out: LOVO-DOX LC50; for IC (TGI): read-out: LOVO-DOX TGI
# Summary of the method: as §1
# [7] = tested on: HeLa; experiment: as above; details: Homo sapiens, HeLa, 48 h; for GI50: read-out: HELA GI50; for CC50: read-out: HELA LC50; for IC (TGI): read-out: HELA TGI
# Summary of the method: as §1
# [8] = tested on: SK-MEL-28; experiment: as above; details: Homo sapiens, SK-MEL-28, 48 h
# Summary of the method: as §1
# [9] = tested on: IGROV-ET; experiment: as above; details: Homo sapiens, 48 h; for GI50: read-out: IGROV-ET GI50; for CC50: read-out: IGROV-ET LC50; for IC (TGI): read-out: IGROV-ET TGI
# Summary of the method: as §1
# [10] = tested on: SK-BR-3; experiment: as above; details: Homo sapiens, SK-BR-3, 48 h; for GI50: read-out: SK-BR3 GI50; for CC50: read-out: SK-BR3 LC50; for IC (TGI): read-out: SK-BR3 TGI
# Summary of the method: as §1
# [11] = tested on: DU-145; experiment: as above; details: Homo sapiens, DU-145, 48 h
# Summary of the method: as §1
# [12] = tested on: HT-29; experiment: cells; details: Homo sapiens, HT-29, 48 h
# Summary of the method: as §1
# [13] = tested on: A-549; experiment: cells; details: Homo sapiens, A549, 48 h
# Summary of the method: as §1
# [14] = tested on: LoVo; experiment: cells; details: Homo sapiens, LoVo, 48 h; for GI50: read-out: LOVO GI50; for CC50: read-out: LOVO LC50; for IC (TGI): read-out: LOVO TGI
# Summary of the method: as §1
structure (smiles),measurement,setting,value
COc1c(C)cc2c(c1O)[C@H]1N[C@@H](C2)[C@H](O)N2C1[C@@H]1SC[C@]3(NCCc4c3[nH]c3ccccc43)C(=O)OC[C@H]2c2c3c(c(C)c(OC(C)=O)c21)OCO3 (stereo partly drawn) [compound 63],GI50,[1],11 nM
same,CC50,[1],150 nM
same,IC (TGI),[1],39.8 nM
same,GI50,[2]; read-out: LNCAP GI50,2.86 nM
same,CC50,[2]; read-out: LNCAP LC50,10 nM
same,IC (TGI),[2]; read-out: LNCAP TGI,5.36 nM
same,GI50,[3],4.6 nM
same,CC50,[3],4270 nM
same,IC (TGI),[3],17.4 nM
same,GI50,[4],3.86 nM
same,CC50,[4],634 nM
same,IC (TGI),[4],7.92 nM
same,GI50,[5],5.4 nM
same,CC50,[5],4.49 nM
same,IC (TGI),[5],15 nM
same,GI50,[6],398 nM
same,CC50,[6],13500 nM
same,IC (TGI),[6],1090 nM
same,GI50,[7],3.16 nM
same,CC50,[7],12.5 nM
same,IC (TGI),[7],6.29 nM
same,GI50,[8]; read-out: MEL-28 GI50,5.64 nM
same,CC50,[8]; read-out: MEL-28 LC50,52.6 nM
same,IC (TGI),[8]; read-out: MEL-28 TGI,17 nM
same,GI50,[9],75.9 nM
same,CC50,[9],13300 nM
same,IC (TGI),[9],537 nM
same,GI50,[10],3.93 nM
same,CC50,[10],198 nM
same,IC (TGI),[10],8.98 nM
same,GI50,[11]; read-out: DU145 GI50,3.48 nM
same,CC50,[11]; read-out: DU145 LC50,4400 nM
same,IC (TGI),[11]; read-out: DU145 TGI,7.24 nM
same,GI50,[12]; read-out: HT29 GI50,9.17 nM
same,CC50,[12]; read-out: HT29 LC50,13500 nM
same,IC (TGI),[12]; read-out: HT29 TGI,327 nM
same,GI50,[13]; read-out: A549 GI50,24 nM
same,CC50,[13]; read-out: A549 LC50,273 nM
same,IC (TGI),[13]; read-out: A549 TGI,61.4 nM
same,GI50,[14],8.63 nM
same,CC50,[14],13500 nM
same,IC (TGI),[14],54.8 nM
COc1c(C)cc2c(c1O)[C@H]1N[C@@H](C2)[C@H](O)N2C1[C@@H]1SC[C@]3(NCCc4c3[nH]c3ccc(C)cc43)C(=O)OC[C@H]2c2c3c(c(C)c(OC(C)=O)c21)OCO3 (stereo partly drawn) [compound 66],GI50,[1],3.05 nM
same,CC50,[1],12.7 nM
same,IC (TGI),[1],6.24 nM
same,GI50,[2]; read-out: LNCAP GI50,1.99 nM
same,CC50,[2]; read-out: LNCAP LC50,7.39 nM
same,IC (TGI),[2]; read-out: LNCAP TGI,3.83 nM
same,GI50,[3],4.57 nM
same,CC50,[3],6400 nM
same,IC (TGI),[3],23.4 nM
same,GI50,[4],4.33 nM
same,CC50,[4],484 nM
same,IC (TGI),[4],12.5 nM
same,GI50,[5],2.99 nM
same,CC50,[5],160 nM
same,IC (TGI),[5],6.76 nM
same,GI50,[6],370 nM
same,CC50,[6],13200 nM
same,IC (TGI),[6],1890 nM
same,GI50,[7],2.41 nM
same,CC50,[7],9.07 nM
same,IC (TGI),[7],4.68 nM
same,GI50,[8]; read-out: MEL-28 GI50,5.34 nM
same,CC50,[8]; read-out: MEL-28 LC50,74.5 nM
same,IC (TGI),[8]; read-out: MEL-28 TGI,18.9 nM
same,GI50,[9],38.3 nM
same,CC50,[9],5590 nM
same,IC (TGI),[9],179 nM
same,GI50,[10],6.5 nM
same,CC50,[10],13200 nM
same,IC (TGI),[10],331 nM
same,GI50,[11]; read-out: DU145 GI50,3.39 nM
same,CC50,[11]; read-out: DU145 LC50,3860 nM
same,IC (TGI),[11]; read-out: DU145 TGI,1.6 nM
same,GI50,[12]; read-out: HT29 GI50,5.86 nM
same,CC50,[12]; read-out: HT29 LC50,13200 nM
same,IC (TGI),[12]; read-out: HT29 TGI,181 nM
same,GI50,[13]; read-out: A549 GI50,7.62 nM
same,CC50,[13]; read-out: A549 LC50,874 nM
same,IC (TGI),[13]; read-out: A549 TGI,39.7 nM
same,GI50,[14],5.27 nM
same,CC50,[14],4350 nM
same,IC (TGI),[14],20.9 nM
COc1c(C)cc2c(c1OC(=O)/C=C/c1ccccc1)[C@H]1N[C@@H](C2)[C@H](C#N)N2C1[C@@H]1SCC(NC(=O)C(F)(F)F)C(=O)OC[C@H]2c2c3c(c(C)c(OC(C)=O)c21)OCO3 (stereo partly drawn) [compound 34],GI50,[1],33.9 nM
same,CC50,[1],108 nM
same,IC (TGI),[1],60.5 nM
same,GI50,[2]; read-out: GI50 LNCAP,22 nM
same,CC50,[2]; read-out: LC50 LNCAP,147 nM
same,IC (TGI),[2]; read-out: TGI LNCAP,52.1 nM
same,GI50,[3],51.1 nM
same,CC50,[3],841 nM
same,IC (TGI),[3],123 nM
same,GI50,[4],16.2 nM
same,CC50,[4],146 nM
same,IC (TGI),[4],45 nM
same,GI50,[5],29.2 nM
same,CC50,[5],117 nM
same,IC (TGI),[5],58.3 nM
same,GI50,[6],140 nM
same,CC50,[6],12000 nM
same,IC (TGI),[6],410 nM
same,GI50,[7],33.5 nM
same,CC50,[7],116 nM
same,IC (TGI),[7],62.4 nM
same,GI50,[8]; read-out: GI50 MEL-28,32.7 nM
same,CC50,[8]; read-out: LC50 MEL-28,111 nM
same,IC (TGI),[8]; read-out: TGI MEL-28,60.3 nM
same,GI50,[9],89.5 nM
same,CC50,[9],860 nM
same,IC (TGI),[9],262 nM
same,GI50,[10],12.7 nM
same,CC50,[10],626 nM
same,IC (TGI),[10],70.1 nM
same,GI50,[11]; read-out: GI50 DU145,51.1 nM
same,CC50,[11]; read-out: LC50 DU145,53.7 nM
same,IC (TGI),[11]; read-out: TGI DU145,98.7 nM
same,GI50,[12]; read-out: GI50 HT29,62 nM
same,CC50,[12]; read-out: LC50 HT29,1640 nM
same,IC (TGI),[12]; read-out: TGI HT29,165 nM
same,GI50,[13]; read-out: GI50 A549,55.3 nM
same,CC50,[13]; read-out: LC50 A549,611 nM
same,IC (TGI),[13]; read-out: TGI A549,184 nM
same,GI50,[14],28.7 nM
same,CC50,[14],98.6 nM
same,IC (TGI),[14],53.2 nM
COc1c(C)cc2c(c1O)[C@H]1N[C@@H](C2)[C@H](O)N2C1[C@@H]1SCC(=O)C(=O)OC[C@H]2c2c3c(c(C)c(OC(C)=O)c21)OCO3 (stereo partly drawn) [compound 43],GI50,[1],24.1 nM
same,CC50,[1],423 nM
same,IC (TGI),[1],73.2 nM
same,GI50,[2]; read-out: LNCAP GI50,6.58 nM
same,CC50,[2]; read-out: LNCAP LC50,88.7 nM
same,IC (TGI),[2]; read-out: LNCAP TGI,20.2 nM
same,GI50,[3],22.9 nM
same,CC50,[3],2150 nM
same,IC (TGI),[3],82.7 nM
same,GI50,[4],3.11 nM
same,CC50,[4],895 nM
same,IC (TGI),[4],13.8 nM
same,GI50,[5],10.6 nM
same,CC50,[5],384 nM
same,IC (TGI),[5],49.6 nM
same,GI50,[6],423 nM
same,CC50,[6],16700 nM
same,IC (TGI),[6],1150 nM
same,GI50,[7],9.39 nM
same,CC50,[7],145 nM
same,IC (TGI),[7],39.9 nM
same,GI50,[8]; read-out: MEL-28 GI50,9.09 nM
same,CC50,[8]; read-out: MEL-28 LC50,91 nM
same,IC (TGI),[8]; read-out: MEL-28 TGI,32.7 nM
same,GI50,[9],68.5 nM
same,CC50,[9],5800 nM
same,IC (TGI),[9],369 nM
same,GI50,[10],5.83 nM
same,CC50,[10],164 nM
same,IC (TGI),[10],24.2 nM
same,GI50,[11]; read-out: DU145 GI50,13.6 nM
same,CC50,[11]; read-out: DU145 LC50,2920 nM
same,IC (TGI),[11]; read-out: DU145 TGI,67 nM
same,GI50,[12]; read-out: HT29 GI50,24.2 nM
same,CC50,[12]; read-out: HT29 LC50,16700 nM
same,IC (TGI),[12]; read-out: HT29 TGI,190 nM
same,GI50,[13]; read-out: A549 GI50,26.1 nM
same,CC50,[13]; read-out: A549 LC50,148 nM
same,IC (TGI),[13]; read-out: A549 TGI,62.1 nM
same,GI50,[14],31.2 nM
same,CC50,[14],16700 nM
same,IC (TGI),[14],86.7 nM
